This note sets out measurements from PubChem BioAssay (NCI).

SMILES strings stand for the structures.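 All cell lines were grown in 96-well plates and treated with compound for 48 hours. TGI is the concentration that stops growth completely.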 Where only a bound is given, the exact number is not on record here.

The test system of the first assay is OVCAR-8 ovarian. Description: NCI anticancer screen, dose series, 48 h.
As to `CC(=O)OCC1=C(CCC#N)N2C(=O)C(NC(=O)Cc3cccs3)C2S(=O)C1` (stereo unspecified), the TGI is more than 100 µM.
The molecule `O=c1c2c(oc3ccccc13)-c1ccccc1OC2` came in with a TGI of more than 100 µM.
Regarding `CCSc1[nH]c(NC(=S)NC(=O)c2ccccc2Cl)c(C(N)=O)c1C(N)=O`, the TGI was more than 10 µM.
`COC(=O)N/N=C(\Cc1ccccc1)CN(C)C` had a TGI of more than 100 µM.
In the case of `Nc1ncnn2c(C3OC(CO)C(O)C3O)ccc12` (stereo unspecified), the TGI is 0.746 µM.
Regarding `COc1ccc2c3c1O[C@]1(C)C34CCN(C)C(C2)C42C=C[C@@]1(OC)c1c(O)ccc(O)c12`, the TGI was more than 100 µM.
In turn, `C[N+](C)(C)CC(=O)N/N=C/c1oc(-c2c(O)ccc3ccccc23)c(-c2c(O)ccc3ccccc23)c1[N+](=O)[O-]` displayed a TGI of 78.6 µM.
On the same count and under the same terms, in the case of `COC(=O)[C@@H]1CN(C(C)=O)C(=O)N1` it was more than 100 µM.
Same read-out and setting: in the case of `COC(=O)c1ccc(C)cc1CC1Cc2cc(C)ccc2C1=O` (stereo unspecified) it was more than 100 µM.
On to `C/C(CC(=O)Nc1ccc([N+](=O)[O-])cc1)=N\NC(N)=O`, for which the TGI is more than 100 µM.
For the molecule `CCCCOC(=O)C1C2CCC(O2)C1C(=O)OCCCC` (stereo unspecified), the TGI was more than 100 µM.
The molecule `CSc1nc(C#N)c(/N=C\N(C)C)n1C` had a TGI of more than 100 µM.

A further assay has as its system RXF 393 renal. Kind of assay: NCI anticancer screen, dose series, 48 h.
Take `C[C@]12CCC(=O)C=C1CC[C@@H]1[C@@H]2CC[C@]2(C)C(=O)NC(=O)C[C@@H]12`: the TGI was more than 100 µM.
In turn, `COc1cc2c(oc(=O)c3c4oc([Si](C)(C)C)cc4cc(OC)c23)c2cccc(OCc3ccccc3)c12` registered a TGI of more than 48.2 µM.
The same measure, in the same setting: in the case of `CC(=O)OCC1=C(CCC#N)N2C(=O)C(NC(=O)Cc3cccs3)C2S(=O)C1` (stereo unspecified) it was more than 100 µM.
Consider `CCSc1[nH]c(NC(=S)NC(=O)c2ccccc2Cl)c(C(N)=O)c1C(N)=O`, for which the TGI is more than 10 µM.
For `COC(=O)N/N=C(\Cc1ccccc1)CN(C)C`, the TGI was more than 100 µM.
For `Nc1ncnn2c(C3OC(CO)C(O)C3O)ccc12` (stereo unspecified), the TGI stood at 0.667 µM.
The molecule `COc1ccc2c3c1O[C@]1(C)C34CCN(C)C(C2)C42C=C[C@@]1(OC)c1c(O)ccc(O)c12` gave a TGI of more than 100 µM.
Regarding `C[N+](C)(C)CC(=O)N/N=C/c1oc(-c2c(O)ccc3ccccc23)c(-c2c(O)ccc3ccccc23)c1[N+](=O)[O-]`, the TGI was 26.8 µM.
As for `COC(=O)[C@@H]1CN(C(C)=O)C(=O)N1`, the TGI was more than 100 µM.
On to `C/C(CC(=O)Nc1ccc([N+](=O)[O-])cc1)=N\NC(N)=O`, for which the TGI is more than 100 µM.
`CCOC(=O)c1cccn1S(=O)(=O)c1cc(Cl)ccc1NC(=O)CC` gave a TGI of more than 100 µM.
In turn, `CCCCOC(=O)C1C2CCC(O2)C1C(=O)OCCCC` (stereo unspecified) showed a TGI of more than 86.8 µM.
Take `CSc1nc(C#N)c(/N=C\N(C)C)n1C`: the TGI is more than 100 µM.

Another assay relates to SK-MEL-28 melanoma. Kind of assay: NCI anticancer screen, dose series, 48 h.
In turn, `O=C1/C(=C/c2cccc(Br)c2)CCc2ccccc21` had a TGI of 33.8 µM.
`C[C@]12CCC(=O)C=C1CC[C@@H]1[C@@H]2CC[C@]2(C)C(=O)NC(=O)C[C@@H]12` yielded a TGI of more than 100 µM.
`COc1cc2c(oc(=O)c3c4oc([Si](C)(C)C)cc4cc(OC)c23)c2cccc(OCc3ccccc3)c12`: the TGI is more than 85.9 µM.
`CC(=O)OCC1=C(CCC#N)N2C(=O)C(NC(=O)Cc3cccs3)C2S(=O)C1` (stereo unspecified) displayed a TGI of more than 100 µM.
Molecule `CCSc1[nH]c(NC(=S)NC(=O)c2ccccc2Cl)c(C(N)=O)c1C(N)=O` showed a TGI of more than 10 µM.
As for `O=C1CCCCC/C1=C\c1cccc(Cl)c1`, the TGI was more than 100 µM.
For `COC(=O)N/N=C(\Cc1ccccc1)CN(C)C`, the TGI was more than 100 µM.
Turning to `Nc1ncnn2c(C3OC(CO)C(O)C3O)ccc12` (stereo unspecified), the TGI was 0.592 µM.
On the same count and under the same terms, in the case of `COc1ccc2c3c1O[C@]1(C)C34CCN(C)C(C2)C42C=C[C@@]1(OC)c1c(O)ccc(O)c12` it was more than 100 µM; in that of `C[N+](C)(C)CC(=O)N/N=C/c1oc(-c2c(O)ccc3ccccc23)c(-c2c(O)ccc3ccccc23)c1[N+](=O)[O-]`, 49.2 µM; in that of `COC(=O)[C@@H]1CN(C(C)=O)C(=O)N1`, more than 100 µM.
Still for that read-out and setting: in the case of `COC(=O)c1ccc(C)cc1CC1Cc2cc(C)ccc2C1=O` (stereo unspecified) it was more than 100 µM; in that of `C/C(CC(=O)Nc1ccc([N+](=O)[O-])cc1)=N\NC(N)=O`, more than 100 µM; in that of `CCOC(=O)c1cccn1S(=O)(=O)c1cc(Cl)ccc1NC(=O)CC`, more than 100 µM.
Molecule `CCCCOC(=O)C1C2CCC(O2)C1C(=O)OCCCC` (stereo unspecified) yielded a TGI of more than 100 µM.
Molecule `CSc1nc(C#N)c(/N=C\N(C)C)n1C` showed a TGI of more than 100 µM.

A further assay concerns SNB-19 CNS. Description: NCI anticancer screen, dose series, 48 h.
Molecule `O=C1/C(=C/c2cccc(Br)c2)CCc2ccccc21` returned a TGI of 27.9 µM.
Molecule `C[C@]12CCC(=O)C=C1CC[C@@H]1[C@@H]2CC[C@]2(C)C(=O)NC(=O)C[C@@H]12` registered a TGI of more than 100 µM.
The same measure, in the same setting: in the case of `COc1cc2c(oc(=O)c3c4oc([Si](C)(C)C)cc4cc(OC)c23)c2cccc(OCc3ccccc3)c12` it was 64.1 µM; in that of `CC(=O)OCC1=C(CCC#N)N2C(=O)C(NC(=O)Cc3cccs3)C2S(=O)C1` (stereo unspecified), more than 100 µM.
`O=C1CCCCC/C1=C\c1cccc(Cl)c1` displayed a TGI of more than 100 µM.
The molecule `Nc1ncnn2c(C3OC(CO)C(O)C3O)ccc12` (stereo unspecified) returned a TGI of 25.4 µM.
In the case of `COc1ccc2c3c1O[C@]1(C)C34CCN(C)C(C2)C42C=C[C@@]1(OC)c1c(O)ccc(O)c12`, the TGI was more than 100 µM.
Molecule `C[N+](C)(C)CC(=O)N/N=C/c1oc(-c2c(O)ccc3ccccc23)c(-c2c(O)ccc3ccccc23)c1[N+](=O)[O-]` yielded a TGI of more than 100 µM.
The molecule `COC(=O)[C@@H]1CN(C(C)=O)C(=O)N1` displayed a TGI of more than 100 µM.
Molecule `COC(=O)c1ccc(C)cc1CC1Cc2cc(C)ccc2C1=O` (stereo unspecified) had a TGI of more than 100 µM.
With `C/C(CC(=O)Nc1ccc([N+](=O)[O-])cc1)=N\NC(N)=O`, the TGI was more than 100 µM.
In the case of `CCOC(=O)c1cccn1S(=O)(=O)c1cc(Cl)ccc1NC(=O)CC`, the TGI is more than 100 µM.
`CCCCOC(=O)C1C2CCC(O2)C1C(=O)OCCCC` (stereo unspecified) displayed a TGI of more than 100 µM.
On the same count and under the same terms, in the case of `CSc1nc(C#N)c(/N=C\N(C)C)n1C` it was more than 100 µM.

In the next assay the test system is UACC-62 melanoma. Description: NCI anticancer screen, dose series, 48 h.
`O=C1/C(=C/c2cccc(Br)c2)CCc2ccccc21` displayed a TGI of 22.4 µM.
Still for that read-out and setting: the value for `C[C@]12CCC(=O)C=C1CC[C@@H]1[C@@H]2CC[C@]2(C)C(=O)NC(=O)C[C@@H]12` was more than 100 µM; that for `COc1cc2c(oc(=O)c3c4oc([Si](C)(C)C)cc4cc(OC)c23)c2cccc(OCc3ccccc3)c12` was 37.6 µM; that for `CC(=O)OCC1=C(CCC#N)N2C(=O)C(NC(=O)Cc3cccs3)C2S(=O)C1` (stereo unspecified) was more than 100 µM.
`O=c1c2c(oc3ccccc13)-c1ccccc1OC2` showed a TGI of more than 100 µM.
On the same count and under the same terms, the value for `CCSc1[nH]c(NC(=S)NC(=O)c2ccccc2Cl)c(C(N)=O)c1C(N)=O` was more than 10 µM; that for `O=C1CCCCC/C1=C\c1cccc(Cl)c1` was more than 100 µM; that for `COC(=O)N/N=C(\Cc1ccccc1)CN(C)C` was more than 100 µM.
With `Nc1ncnn2c(C3OC(CO)C(O)C3O)ccc12` (stereo unspecified), the TGI stood at 0.358 µM.
Still for that read-out and setting: the value for `C[N+](C)(C)CC(=O)N/N=C/c1oc(-c2c(O)ccc3ccccc23)c(-c2c(O)ccc3ccccc23)c1[N+](=O)[O-]` was 18.6 µM; that for `COC(=O)[C@@H]1CN(C(C)=O)C(=O)N1` was more than 100 µM; that for `COC(=O)c1ccc(C)cc1CC1Cc2cc(C)ccc2C1=O` (stereo unspecified) was more than 100 µM.
The same measure, in the same setting: the value for `C/C(CC(=O)Nc1ccc([N+](=O)[O-])cc1)=N\NC(N)=O` was more than 100 µM; that for `CCOC(=O)c1cccn1S(=O)(=O)c1cc(Cl)ccc1NC(=O)CC` was more than 100 µM.
The molecule `CCCCOC(=O)C1C2CCC(O2)C1C(=O)OCCCC` (stereo unspecified) showed a TGI of more than 100 µM.
As for `CSc1nc(C#N)c(/N=C\N(C)C)n1C`, the TGI was more than 100 µM.
